Source: patent US20230053540A1, “TREATMENT OF LIVER INJURY” (Massachusetts Institute of Technology, priority 2019, published 2023)

System: hepatocytes
Test: Seq-Well scRNA-Seq of hepatocytes after APAP overdose (signature scores, DEG vs untreated)
Format: in vivo, mouse
Details: APAP vs UT, composite DEG

CC(=O)Nc1ccc(O)cc1 [APAP, acetaminophen]
Fam134b logFC: 0.8936
Fam214a logFC: −0.2658
Fcgrt logFC: −0.2693
Fdps logFC: −0.2663
Fitm1 logFC: −0.3242
Fkbp4 logFC: −0.3534
Fmo5 logFC: 0.2862
Fn1 logFC: 0.6996
Fpgs logFC: −0.3494
Ftl1 logFC: 1
Furin logFC: 0.4056
Fus logFC: 0.3393
Fxyd5 logFC: 0.2743
G0s2 logFC: 0.3465
G6pc logFC: −0.9601
Gabarap logFC: −0.4425
Gabarapl1 logFC: 0.2607
Gadd45g logFC: −0.614
Gadd45gip1 logFC: −0.3041
Gc logFC: 0.2598
Gcdh logFC: −0.3003
Gch1 logFC: −0.2825
Gcnt2 logFC: 0.5375
Gfra1 logFC: 0.3864
Ggnbp2 logFC: 0.2726
Ghr logFC: −0.3648
Gjb1 logFC: −0.3166
Glo1 logFC: −0.4066
Gltscr2 logFC: 0.2553
Glud1 logFC: 0.451
Glyctk logFC: −0.2977
Gm2a logFC: 0.3831
Gm2788 logFC: −0.2831
Gm4951 logFC: −0.3221
Gm6484 logFC: 0.3043
Gm10800 logFC: 0.5626
Gm10801 logFC: 0.2659
Gm23935 logFC: 1
Gm24245 logFC: 0.5465
Gm24270 logFC: 0.268
Gne logFC: −0.4251
Gnmt logFC: −0.4604
Golga4 logFC: 0.3521
Gpam logFC: 0.2504
Gpld1 logFC: 0.3281
Grhpr logFC: −0.3531
Grlf1 logFC: 0.295
Grn logFC: 0.5408
Gsk3b logFC: 0.4065
Gsta1 logFC: 0.4076
Gsta3 logFC: −0.8063
Gstk1 logFC: −0.2828
Gstm4 logFC: −0.3809
Gstp1 logFC: −0.8558
Gstt3 logFC: 0.3507
Gtpbp4 logFC: 0.4822
Gyk logFC: 0.4024
Gys2 logFC: 0.2744
H6pd logFC: 0.3437
Hadh logFC: 0.2888
Hagh logFC: −0.674
Hamp logFC: −1.021
Hba-a1 logFC: 0.735
Hba-a2 logFC: 0.5535
Hbb-bt logFC: 1.43
Hdac11 logFC: −0.3368
Hdlbp logFC: 0.5651
Herpud1 logFC: 0.5136
Hgd logFC: −0.7586
Hgfac logFC: 0.2522
Hibch logFC: −0.3271
Hint1 logFC: −0.6739
Hipk3 logFC: 0.3394
Hist1h1c logFC: −0.3009
Hmgcl logFC: 0.4738
Hmgcr logFC: 0.4167
Hmgcs1 logFC: −0.3491
Hnf4a logFC: 0.8791
Hnrnpdl logFC: 0.398
Hp logFC: 0.4313
Hsd3b3 logFC: −0.7795
Hsd3b5 logFC: −1.07
Hsd3b7 logFC: −1.006
Hsd17b4 logFC: 0.2532
Hsd17b10 logFC: −0.3772
Hsd17b13 logFC: 0.6808
Hsp90ab1 logFC: 0.3227
Hsp90b1 logFC: 0.5342
Hspa5 logFC: 0.6105
Hspa8 logFC: 0.4204
Huwe1 logFC: 0.3879
Hyou1 logFC: 0.8465
Id3 logFC: −0.3511
Ide logFC: 0.2517
Ifrd1 logFC: 0.4904
Igf1 logFC: 0.2958
Iigp1 logFC: 0.7688
Il1b logFC: 0.7429
Il1r1 logFC: 1.245
Il4ra logFC: 0.2574
Il6ra logFC: 0.3044
Ildr2 logFC: 0.2676
Insig2 logFC: 0.67
Ipo5 logFC: 0.2687
Iqgap1 logFC: 0.4554
Iqgap2 logFC: 0.2547
Ireb2 logFC: 0.2657
Itih3 logFC: 0.5462
Itih4 logFC: 0.5251
Jhdm1d logFC: 0.3041
Kdelr2 logFC: 0.3977
Khk logFC: −0.4915
Kif1b logFC: 0.3718
Kif5b logFC: 0.5012
Kif21a logFC: 0.4042
Klf3 logFC: 0.2674
Klf6 logFC: 0.7324
Klf9 logFC: 0.2934
Kng1 logFC: 0.2658
Krt8 logFC: 1.196
Krt18 logFC: 1.258
Lamp1 logFC: 0.2683
Lap3 logFC: −0.3644
Larp4b logFC: 0.3421
Lasp1 logFC: 0.253
Lcat logFC: 0.4361
Lcp1 logFC: 0.484
Lgals9 logFC: −0.27
Lifr logFC: −0.6262
Lipa logFC: 0.4183
Litaf logFC: 0.3944
Lpgat1 logFC: 0.5952
Lpin2 logFC: 0.6867
Lrg1 logFC: 0.4908
Lrrc58 logFC: 1.001
Lrrfip2 logFC: 0.3731
Lsmd1 logFC: −0.3131
Lyz2 logFC: 0.7322
Macf1 logFC: 0.4042
Magt1 logFC: 0.2633
Man2a1 logFC: 0.4971
Maob logFC: 0.3204
Map3k5 logFC: 0.3347
Mapk6 logFC: 0.2568
Mat2a logFC: 0.4826
Mbl2 logFC: −0.3465
Mbnl1 logFC: 0.4513
Mcee logFC: −0.3199
Mcl1 logFC: 0.5709
Mdh1 logFC: −0.3077
Mdm2 logFC: 0.3283
Med13 logFC: 0.2949
Met logFC: 0.2883
Metap2 logFC: 0.3686
Mettl7a1 logFC: −0.3221
Mettl7b logFC: −0.4527
Mettl20 logFC: −0.3314
Mgll logFC: 0.3339
Mgst1 logFC: −1.06
Mia3 logFC: 0.3646
Mien1 logFC: −0.3704
Mki67ip logFC: 0.3184
Mlycd logFC: 0.313
Mmp8 logFC: 0.359
Mocs2 logFC: −0.3467
Mpeg1 logFC: 0.4935
Mrap logFC: 0.8841
Mrc1 logFC: 0.3404
Mrp63 logFC: −0.4422
Mrpl12 logFC: −0.3082
Mrpl33 logFC: −0.2654
Mrps18c logFC: −0.3663
Mrps24 logFC: −0.3904
Mtdh logFC: 0.3047
Mthfd2 logFC: 0.2624
Mtss1 logFC: 0.2876
Mttp logFC: 0.3115
Mtus1 logFC: 0.3621
Mup1 logFC: 1
Mup4 logFC: −1.087
Mup8 logFC: −0.7958
Mup13 logFC: −0.7757
Mup14 logFC: −0.7608
Mup20 logFC: −0.4762
Mxd1 logFC: 0.2978
Mybbp1a logFC: 0.4312
Myh9 logFC: 1.16
Myl12a logFC: 0.3908
Nadk2 logFC: 0.2579
Naprt1 logFC: −0.3381
Narf logFC: 0.2629
Nars logFC: 0.4378
Ncl logFC: 0.4845
Ndufa1 logFC: −0.3645
Ndufa2 logFC: −0.3965
Ndufa3 logFC: −0.4116
Ndufa4 logFC: −0.6831
Ndufb3 logFC: −0.3272
Ndufb8 logFC: −0.3481
Ndufb10 logFC: −0.3004
Ndufc1 logFC: −0.3444
Ndufc2 logFC: −0.4253
